Assay results from patent US10752581B2, “4-((2-hydroxy-3-methoxybenzyl)amino)benzenesulfonamide derivatives as potent and selective inhibitors of 12-lipoxygenase” (Eastern Virginia Medical School, priority 2013, dated 2020).
Marks after values point to notes of the source that are not given here.

Columns and labels:
[1] = Microsomal stability (mouse); assay type: in vitro ADME
[2] = test system: FcγRIIa-stimulated platelets; experiment: FcγRIIa phosphorylation (immunoprecipitation, Western blot); assay type: cell-based, human; conditions: ML355 (20 μM); IV.3+GAM
Experimental: FIGS. 15A-15B show the role of 12-LOX in regulating the FcγRIIa signaling complex. Washed human platelets were pre-treated with ML355 (20 μM) or vehicle control prior to IV.3 and GAM stimulation. (FIG. 15A) Immunoprecipitation of FcγRIIa at 15, 30, and 60 seconds post crosslinking and measured for phosphorylation via Western blot. (FIG. 15B) Platelets were lysed following FcγRIIa cross-linking in the presence of ML355 or DMSO were immunoblotted for active (pY323) and total Syk.
To investigate whether 12-LOX directly regulated FcγRIIa phosphorylation, FcγRIIa was immunoprecipitated from IV.3+GAM-stimulated platelets treated with ML355 or DMSO and immunoblotted for phosphorylation of FcγRIIa.
FcγRIIa-mediated platelet activation: FcγRIIa-mediated platelet activation was initiated by two distinct models; either 1) FcγRIIa antibody cross-linking or 2) CD9 monoclonal antibody stimulation. To cross-link FcγRIIa, washed platelets were incubated with IV.3, an FcγRIIa mouse monoclonal antibody, for one minute followed by the addition of a goat anti-mouse (GAM) IgG antibody to cross-link FcγRIIa. The concentration of FcγRIIa cross-linking antibodies used for each experiment is indicated in the text. Alternatively, washed human platelets were stimulated with an anti-CD9 monoclonal antibody to activate FcγRIIa mediated signaling. […]

[3] = test system: FcγRIIa-stimulated platelets; experiment: Calcium mobilization after FcγRIIa cross-linking; assay type: cell-based, human; conditions: ML355 (20 μM); compared to DMSO treated platelets
Experimental: (§1) FcγRIIa-mediated platelet activation: FcγRIIa-mediated platelet activation was initiated by two distinct models; either 1) FcγRIIa antibody cross-linking or 2) CD9 monoclonal antibody stimulation. To cross-link FcγRIIa, washed platelets were incubated with IV.3, an FcγRIIa mouse monoclonal antibody, for one minute followed by the addition of a goat anti-mouse (GAM) IgG antibody to cross-link FcγRIIa. The concentration of FcγRIIa cross-linking antibodies used for each experiment is indicated in the text. Alternatively, washed human platelets were stimulated with an anti-CD9 monoclonal antibody to activate FcγRIIa mediated signaling. Due to inter-individual variability in anti-CD9 response, a range of anti-CD9 concentration (0.25-1 μg/ml) was used to achieve an aggregation of EC80. In studies using the 12-LOX inhibitor (ML355), washed platelets were incubated with either ML355 (20 μM), or DMSO (vehicle control) for 15 minutes prior to FcγRIIa stimulation.
Calcium mobilization: Intracellular calcium release was measured as previously described. […] Platelets were stimulated by FcγRIIa antibody cross-linking and fluorescence intensity was measured in real-time by flow cytometry. Data is reported as the fold change in the fluorescence intensity comparing maximum fluorescence intensity relative to fluorescence intensity prior to platelet stimulation.

[4] = test system: FcγRIIa-stimulated platelets; experiment: PKC activation assay; assay type: cell-based, human
Experimental: as §1
PKC activation assay: Washed platelets were stimulated by FcγRIIa antibody cross-linking under stirring conditions (1100 rpm) in an aggregometer at 37° C. Reactions were stopped by the addition of 5X× Laemmli sample buffer at the indicated times. As a positive control platelets were treated with PMA ([…]), a direct PKC agonist, for one minute. […]

[5] = Parallel Artificial Membrane Permeability Assay (PAMPA); conditions: PAMPA at pH 7.4

COc1cccc(CNc2ccc(S(=O)(=O)Nc3nc4ccccc4s3)cc2)c1O [Compound 35, N-(benzo[d]thiazol-2-yl)-4-((2-hydroxy-3-methoxybenzyl)amino)benzenesulfonamide]
Microsomal stability T1/2 (min) ([1]; in the presence of NADPH): >300^a min
half-life ([1]; microsomes, read-out: microsomal stability T1/2): > 5 h
FcγRIIa phosphorylation [2]: No difference in FcγRIIa phosphorylation
intracellular Ca2+ release [3]: decrease in intracellular Ca^2+
PKC activation ([4]; ML355 (20 μM), 30 and 60 seconds, FcγRIIa cross-linking): significant decrease in PKC activation
PKC activation by PMA ([4]; PMA, a direct PKC activator): no difference in its ability to activate PKC
permeability (1 × 10^−6 cm/s) [5]: 394^c 1 × 10^−6 cm/s
